Measured values taken from patent publication EP0049913A2, “New ethenylimidazole derivatives, processes for their preparation and pharmaceutical compositions containing them; intermediates, useful in their preparation and a process for the preparation thereof” (GIST-BROCADES N.V., priority 1980, dated 1982).
Values after ≈ are worked out from the molar mass of the structure shown.

What follows are compounds tested on Candida albicans (assay: agar dilution test, Candida albicans). Conditions: 48 h.
Type: cell-based
Experimental: (§1) The compounds of the invention were tested in vitro and in vivo. The in vitro activities were determined by means of the usual agar dilution test. The results after two and five days were expressed as MIC 50 and MIC 90, i.e. the minimum concentrations giving complete inhibition of 50% or 90% of the strains tested in […] and as Potency Ratio (P.R.), i.e. the ratio between the activity of the test compound and the activity of miconazol (= 1).
For `CC(C)(C)C(=Cn1ccnc1)c1ccc(Cl)cc1Cl.O=[N+]([O-])O` [IV, 1-[2-(2,4-dichlorophenyl)-3,3-dimethyl-1-butenyl]-1H-imidazole nitrate], the MIC50 was 3 ng/mL and the MIC90 was 5 ng/mL.

Same assay, conditions: 48 h, after 2 d, complete inhibition of 50% of the strains tested, read-out: MIC 50
For `CCCC(=Cn1ccnc1)c1ccc(Cl)cc1Cl.Cl` [I, 1-[2-(2,4-dichlorophenyl)-1-pentenyl]-1H-imidazol hydrochloride], the MIC50 was 3 ng/mL.
`CCC(C)C(=Cn1ccnc1)c1ccc(Cl)cc1` (stereo not shown) [II, 1-[2-(4-chlorophenyl)-3-methyl-1-pentenyl] -lH-imidazole] gave an MIC50 of 2 ng/mL (≈ 0.00767 µM).

Same assay, conditions: 48 h, after 2 d, complete inhibition of 90% of the strains tested, read-out: MIC 90
Compound `CCCC(=Cn1ccnc1)c1ccc(Cl)cc1Cl.Cl` [I, 1-[2-(2,4-dichlorophenyl)-1-pentenyl]-1H-imidazol hydrochloride] has an MIC90 of 8 ng/mL.
For `CCC(C)C(=Cn1ccnc1)c1ccc(Cl)cc1` (stereo not shown) [II, 1-[2-(4-chlorophenyl)-3-methyl-1-pentenyl] -lH-imidazole], the MIC90 was 5 ng/mL (≈ 0.0192 µM).

Same assay, conditions: 2 d, ratio to activity of miconazol (= 1)
With `CCCC(=Cn1ccnc1)c1ccc(Cl)cc1Cl.Cl` [I, 1-[2-(2,4-dichlorophenyl)-1-pentenyl]-1H-imidazol hydrochloride] the “Potency Ratio (P.R.) MIC 50” value was 1.0 and the “Potency Ratio (P.R.) MIC 90” value was 1.2.
`CCC(C)C(=Cn1ccnc1)c1ccc(Cl)cc1` (stereo not shown) [II, 1-[2-(4-chlorophenyl)-3-methyl-1-pentenyl] -lH-imidazole] was tested, and the “Potency Ratio (P.R.) MIC 50” value was 1.7 and the “Potency Ratio (P.R.) MIC 90” value was 1.7.
With `CC(C)(C)C(=Cn1ccnc1)c1ccc(Cl)cc1Cl.O=[N+]([O-])O` [IV, 1-[2-(2,4-dichlorophenyl)-3,3-dimethyl-1-butenyl]-1H-imidazole nitrate] the “Potency Ratio (P.R.) MIC 50” value was 0.7 and the “Potency Ratio (P.R.) MIC 90” value was 0.9.

Same assay, conditions: 120 h
Compound `CC(C)(C)C(=Cn1ccnc1)c1ccc(Cl)cc1Cl.O=[N+]([O-])O` [IV, 1-[2-(2,4-dichlorophenyl)-3,3-dimethyl-1-butenyl]-1H-imidazole nitrate] has an MIC50 of 5 ng/mL and an MIC90 of 11 ng/mL.

Same assay, conditions: 120 h, after 5 d, complete inhibition of 50% of the strains tested, read-out: MIC 50
For `CCCC(=Cn1ccnc1)c1ccc(Cl)cc1Cl.Cl` [I, 1-[2-(2,4-dichlorophenyl)-1-pentenyl]-1H-imidazol hydrochloride], the MIC50 was 4 ng/mL.
For `CCC(C)C(=Cn1ccnc1)c1ccc(Cl)cc1` (stereo not shown) [II, 1-[2-(4-chlorophenyl)-3-methyl-1-pentenyl] -lH-imidazole], the MIC50 was 4 ng/mL (≈ 0.0153 µM).

Same assay, conditions: 120 h, after 5 d, complete inhibition of 90% of the strains tested, read-out: MIC 90
`CCCC(=Cn1ccnc1)c1ccc(Cl)cc1Cl.Cl` [I, 1-[2-(2,4-dichlorophenyl)-1-pentenyl]-1H-imidazol hydrochloride] showed an MIC90 of 9 ng/mL.
`CCC(C)C(=Cn1ccnc1)c1ccc(Cl)cc1` (stereo not shown) [II, 1-[2-(4-chlorophenyl)-3-methyl-1-pentenyl] -lH-imidazole] gave an MIC90 of 6 ng/mL (≈ 0.023 µM).

Same assay, conditions: 5 d, ratio to activity of miconazol (= 1)
`CCCC(=Cn1ccnc1)c1ccc(Cl)cc1Cl.Cl` [I, 1-[2-(2,4-dichlorophenyl)-1-pentenyl]-1H-imidazol hydrochloride] was tested, and the “Potency Ratio (P.R.) MIC 50” value was 1.0 and the “Potency Ratio (P.R.) MIC 90” value was 0.7.
With `CCC(C)C(=Cn1ccnc1)c1ccc(Cl)cc1` (stereo not shown) [II, 1-[2-(4-chlorophenyl)-3-methyl-1-pentenyl] -lH-imidazole] the “Potency Ratio (P.R.) MIC 50” value was 1.2 and the “Potency Ratio (P.R.) MIC 90” value was 1.9.
In the case of `CC(C)(C)C(=Cn1ccnc1)c1ccc(Cl)cc1Cl.O=[N+]([O-])O` [IV, 1-[2-(2,4-dichlorophenyl)-3,3-dimethyl-1-butenyl]-1H-imidazole nitrate], the “Potency Ratio (P.R.) MIC 50” value is reported as 0.5 and the “Potency Ratio (P.R.) MIC 90” value is reported as 0.5.

Each compound was assayed on Candida albicans strain A 7 (assay: method A: systemic infection with Candida albicans in mice). Conditions: i.p., three doses daily for 3 days, control animals = 1.
Type: in vivo
Experimental: A. Testing of compounds against systemic infection with Candida albicans in mice.
Female Swiss SPF mice, weighing […], ten animals per group, were challenged intravenously with 0.5 ml Candida albicans strain A 7 suspension containing sufficient yeast cells to kill 50% of the untreated animals within 5 days. The treatment consisted of three doses daily administered for 3 days either orally or intraperitoneally. Infected, non treated mice served as controls for mortality. The number of mice surviving the challenge was recorded daily and the ratio between the "median survival duration (days)" of the treated and untreated mice was determined, the survival duration of the control animals being graded as 1 (IMSD = Index Median Survival Duration).
In the case of `CCCC(=Cn1ccnc1)c1ccc(Cl)cc1Cl.Cl` [I, 1-[2-(2,4-dichlorophenyl)-1-pentenyl]-1H-imidazol hydrochloride], the “IMSD (Index Median Survival Duration)” value is reported as 1.4.
`CCC(C)C(=Cn1ccnc1)c1ccc(Cl)cc1` (stereo not shown) [II, 1-[2-(4-chlorophenyl)-3-methyl-1-pentenyl] -lH-imidazole] was tested, and the “IMSD (Index Median Survival Duration)” value was 3.8.
With `CC(C)(C)C(=Cn1ccnc1)c1ccc(Cl)cc1Cl.O=[N+]([O-])O` [IV, 1-[2-(2,4-dichlorophenyl)-3,3-dimethyl-1-butenyl]-1H-imidazole nitrate] the “IMSD (Index Median Survival Duration)” value was 5.1.

Same assay, conditions: p.o., three doses daily for 3 days, control animals = 1
For `CCCC(=Cn1ccnc1)c1ccc(Cl)cc1Cl.Cl` [I, 1-[2-(2,4-dichlorophenyl)-1-pentenyl]-1H-imidazol hydrochloride], the “IMSD (Index Median Survival Duration)” value was 3.0.
With `CCC(C)C(=Cn1ccnc1)c1ccc(Cl)cc1` (stereo not shown) [II, 1-[2-(4-chlorophenyl)-3-methyl-1-pentenyl] -lH-imidazole] the “IMSD (Index Median Survival Duration)” value was 4.6.
For `CC(C)(C)C(=Cn1ccnc1)c1ccc(Cl)cc1Cl.O=[N+]([O-])O` [IV, 1-[2-(2,4-dichlorophenyl)-3,3-dimethyl-1-butenyl]-1H-imidazole nitrate], the “IMSD (Index Median Survival Duration)” value was 3.1.

The compounds below were run on Trichophyton mentagrophytes strain R 177 (assay: method C: experimental dermatophytic infection in guinea pigs). Conditions: local treatment, 2% in Plastibase, twice daily for 10 days; scored on 14th day; grades 1-4; untreated animals 4.
Type: in vivo
Experimental: C. Testing of compounds against experimental dermatophytic infection. (Trichophyton mentagrophytes)
Out-bred blanco TNO female guinea pigs, five animals per group, weighing + 350 g, were prepared by depilation high in the middle of the back over an area 2.5 cm in diameter.
Inoculum was prepared from a culture of Trichophyton mentagrophytes strain R 177 on Mycological Agar. The harvested mycelial mat was diluted in a 20% dextrose solution in water and the suspension was smeared over the depilated area.
Local treatment with 2% concentration of the antimycotic in Plastibase started 72 hours after infection and concurrently the application of vehiculum (Plastibase) to the infected animals was initiated. The application was continued for 10 days and consisted of two applications daily of a measured quantity of ointment to the infected area.
Scoring of lesions and the final check was made on the 14th day after the infection was initiated. The lesions were graded as to the following parameters: • 1 = slight whitish scaling, with erythema • 2 = slight whitish or light yellow scaling with solitary haemorrhagias • 3 = thick whitish-yellow crust or scab • 4 = haemorrhagic ulcer or giant haemorrhagic thick scutula (crust).
The final results were recorded as the average of lesion intensities (A.L.I.) for each experimental group (treated with either test compound or reference compound and untreated control).
With `CCCC(=Cn1ccnc1)c1ccc(Cl)cc1Cl.Cl` [I, 1-[2-(2,4-dichlorophenyl)-1-pentenyl]-1H-imidazol hydrochloride] the “A.L.I. (average of lesion intensities)” value was 0.
With `CCC(C)C(=Cn1ccnc1)c1ccc(Cl)cc1` (stereo not shown) [II, 1-[2-(4-chlorophenyl)-3-methyl-1-pentenyl] -lH-imidazole] the “A.L.I. (average of lesion intensities)” value was 0.
For `CC(C)(C)C(=Cn1ccnc1)c1ccc(Cl)cc1Cl.O=[N+]([O-])O` [IV, 1-[2-(2,4-dichlorophenyl)-3,3-dimethyl-1-butenyl]-1H-imidazole nitrate], the “A.L.I. (average of lesion intensities)” value was 0.

These compounds were tested on Candida albicans strain A 7 (assay: method B: vaginitis candidamycetica in mice (vaginal reduction)). Conditions: local intravaginal treatment in Plastibase, two applications daily for four days, clotrimazol = 100%.
Type: in vivo
Experimental: Female Swiss SPF mice, weighing 19-21 g, fifteen animals per group, following an intramuscular premedication by Dimenformon prolongatum, were inoculated intravaginally with +5.105 CFU of Candida albicans strain A 7, harvested from a culture on Mycological Agar and suspended in physiological saline.
The treatment commenced 72 hours after infection when the candidiasis had reached its peak. A four day local treatment period was employed, consisting of two applications daily of 0.02 ml of antimycotics in Plastibase intravaginally. Alternatively, the test compound was administered orally in three doses daily for three days.
On the seventh day after infection the mice were killed, the vagina was excised and homogenized in saline and cultivated on Mycological Agar. The yeast cells were then counted and expressed as CFU/vagina. Results were analysed statistically using the T-test. The results were compared with those obtained with clotrimazol, the action of which was considered as 100%.
For `CCCC(=Cn1ccnc1)c1ccc(Cl)cc1Cl.Cl` [I, 1-[2-(2,4-dichlorophenyl)-1-pentenyl]-1H-imidazol hydrochloride], the vag.red. % was 35%.
For `CCC(C)C(=Cn1ccnc1)c1ccc(Cl)cc1` (stereo not shown) [II, 1-[2-(4-chlorophenyl)-3-methyl-1-pentenyl] -lH-imidazole], the vag.red. % was 98%.
For `CC(C)(C)C(=Cn1ccnc1)c1ccc(Cl)cc1Cl.O=[N+]([O-])O` [IV, 1-[2-(2,4-dichlorophenyl)-3,3-dimethyl-1-butenyl]-1H-imidazole nitrate], the vag.red. % was 59%.

Same assay, conditions: p.o., three doses daily for three days, clotrimazol = 100%
Compound `CC(C)(C)C(=Cn1ccnc1)c1ccc(Cl)cc1Cl.O=[N+]([O-])O` [IV, 1-[2-(2,4-dichlorophenyl)-3,3-dimethyl-1-butenyl]-1H-imidazole nitrate] has a vag.red. % of 24%.

The compounds below were run on Trichophyton spp. (assay: agar dilution test, Trichophyton spp.). Conditions: 5 d, ratio to activity of miconazol (= 1).
Type: cell-based
Experimental: as §1
In the case of `CCCC(=Cn1ccnc1)c1ccc(Cl)cc1Cl.Cl` [I, 1-[2-(2,4-dichlorophenyl)-1-pentenyl]-1H-imidazol hydrochloride], the “Potency Ratio (P.R.) MIC 50” value is reported as 35.3 and the “Potency Ratio (P.R.) MIC 90” value is reported as 13.9.
For `CCC(C)C(=Cn1ccnc1)c1ccc(Cl)cc1` (stereo not shown) [II, 1-[2-(4-chlorophenyl)-3-methyl-1-pentenyl] -lH-imidazole], the “Potency Ratio (P.R.) MIC 50” value was 2.8 and the “Potency Ratio (P.R.) MIC 90” value was 2.1.
For `CC(C)(C)C(=Cn1ccnc1)c1ccc(Cl)cc1Cl.O=[N+]([O-])O` [IV, 1-[2-(2,4-dichlorophenyl)-3,3-dimethyl-1-butenyl]-1H-imidazole nitrate], the “Potency Ratio (P.R.) MIC 50” value was 15.1 and the “Potency Ratio (P.R.) MIC 90” value was 4.1.
